Data as given in patent US11472778B2, “Hepatitis C virus NS3/4A protease inhibitors” (priority 2017, dated 2022).
Like-named read-outs stand apart in the source and are kept apart here.

What was measured:
[1] = system: HCV replicon D168V variant in Huh7 cells; assay: microbe, parasite or virus in culture; format: cell-based, Hepatitis C virus; settings: for EC50: Hepatitis C virus; for Replicon EC50 (Fold change) D168V: Table 4, relative to WT replicon
In short: (§1)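 Huh7 cells electroporated with replicon RNA and exposed to rising concentrations of protease inhibitor, with replication read as luciferase signal at 96 h. Reporter is a genotype 1b Con1 backbone containing genotype 1a H77 NS3, with mutants introduced by site-directed mutagenesis.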

[2] = rcm bond, 15-membered ring, Zhan 1b, 1,2-DCE
[3] = biological target: T1, GT1a D168A NS3/4A protease (UniProt P27958, C1185S/D1194A, species not given); format: biochemical, Hepatitis C virus; settings: read-out: Ki (nM) GT1a D168A NS3/4A Protease
T1 construct: Ki (nM) GT1a D168A NS3/4A Protease
In short: (§2)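 Enzyme (GT1a wild type or D168A mutant, 2 nM) was preincubated with inhibitor dilutions for 1 h at room temperature in pH 7.5 Tris buffer with glycerol, DTT, LDAO and 4% DMSO.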

[4] = biological target: T2, wild-type GT1a NS3/4A protease (UniProt P27958, C1185S, species not given); format: biochemical, Hepatitis C virus; settings: read-out: Ki (nM) GT1a WT NS3/4A Protease
T2 construct: Ki (nM) GT1a WT NS3/4A Protease
In short: as §2

[5] = biological target: GT1a D168A NS3/4A protease; format: biochemical, Hepatitis C virus; settings: Table 3; Ki D168A relative to GT1a WT
In short: as §2

[6] = system: wild-type HCV replicon in Huh7 cells; assay: Cell-based drug susceptibility (replicon) assay, wild-type; settings: Hepatitis C virus, read-out: Replicon EC50 (nM) WT
In short: as §1

[7] = system: HCV replicon D168A variant in Huh7 cells; assay: microbe, parasite or virus in culture; format: cell-based, Hepatitis C virus; settings: for EC50: Hepatitis C virus; for Replicon EC50 (Fold change) D168A: Table 4, relative to WT replicon
In short: as §1

[8] = system: HCV replicon A156T variant in Huh7 cells; assay: microbe, parasite or virus in culture; format: cell-based, Hepatitis C virus; settings: for EC50: Hepatitis C virus; for Replicon EC50 (Fold change) A156T: Table 4, relative to WT replicon
In short: as §1

[9] = system: HCV replicon R155K variant in Huh7 cells; assay: microbe, parasite or virus in culture; format: cell-based, Hepatitis C virus; settings: for EC50: Hepatitis C virus; for Replicon EC50 (Fold change) R155K: Table 4, relative to WT replicon
In short: as §1

[10] = Huh-7, 96 h, read-out: Replicon EC50 (nM) D168V, Table 2, Huh7 cells, luciferase 96 h
[11] = Huh-7, read-out: Replicon EC50 (nM) D168V, Table 4
[12] = Huh-7, 96 h, Table 2, Huh7 cells, luciferase 96 h
[13] = Huh-7, 96 h, read-out: Replicon EC50 (nM) D168A, Table 2, Huh7 cells, luciferase 96 h
[14] = Huh-7, read-out: Replicon EC50 (nM) D168A, Table 4
[15] = Huh-7, 96 h, read-out: Replicon EC50 (nM) A156T, Table 2, Huh7 cells, luciferase 96 h
[16] = Huh-7, read-out: Replicon EC50 (nM) A156T, Table 4
[17] = Huh-7, 96 h, read-out: Replicon EC50 (nM) R155K, Table 2, Huh7 cells, luciferase 96 h
[18] = Huh-7, read-out: Replicon EC50 (nM) R155K, Table 4

Row | Structure (SMILES) | EC50 [1, 10] | EC50 [1, 11] | Replicon EC50 (Fold change) D168V [1] | Ki ([3]; Table 1) | Ki ([3]; Table 3) | Ki ([4]; Table 1) | Ki ([4]; Table 3) | Ki (Fold change) GT1a D168A NS3/4A Protease [5] | EC50 [6, 12] | EC50 ([6]; Huh-7, Table 4) | EC50 [7, 13] | EC50 [7, 14] | Replicon EC50 (Fold change) D168A [7] | EC50 [8, 15] | EC50 [8, 16] | Replicon EC50 (Fold change) A156T [8] | EC50 [9, 17] | EC50 [9, 18] | Replicon EC50 (Fold change) R155K [9] | other results
1 | COc1ccc2nc(C(C)C)c(O[C@@H]3C[C@H]4C(=O)N[C@]5(C(=O)NS(=O)(=O)C6(C)CC6)C[C@H]5/C=C\CCCCC[C@H](NC(=O)OC(C)(C)C)C(=O)N4C3)nc2c1 [Compound 19e, tert-Butyl ((2R,6S,13aS,14aR,16aS,Z)-2-((3-isopropyl-7-methoxyquinoxalin-2-yl)oxy)-14a-(((1-methylcyclopropyl)sulfonyl)carbamoyl)-5,16-dioxo-1,2,3,5,6,7,8,9,10,11,13a,14,14a,15,16,16a-hexadecahydrocyclopropa[e]pyrrolo[1,2-a][1,4]diazacyclopentadecin-6-yl)carbamate] | 18.1 nM | 18.1 nM | (10) fold | 211 nM | 211 ± 19 nM | 0.58 nM | 0.58 nM | (364) fold | 1.86 nM | 1.86 nM | 11.9 nM | 11.9 nM | (6) fold | 21.2 nM | 21.2 nM | (11) fold | 4.14 nM | 4.14 nM | (2) fold | ring closure, isolated yield ([2]; 6.6 mM): 60%
2 | CC(C)(C)OC(=O)N[C@H]1CCCCC/C=C\[C@@H]2C[C@@]2(C(=O)NS(=O)(=O)C2CC2)NC(=O)[C@@H]2C[C@@H](Oc3nc4ccccc4nc3-c3cccs3)CN2C1=O [Compound 18f, tert-Butyl ((2R,6S,13aS,14aR,16aS,Z)-14a-((cyclopropylsulfonyl)carbamoyl)-5,16-dioxo-2-((3-(thiophen-2-yl)quinoxalin-2-yl)oxy)-1,2,3,5,6,7,8,9,10,11,13a,14,14a,15,16,16a-hexadecahydrocyclopropa[e]pyrrolo[1,2-a][1,4]diazacyclopentadecin-6-yl)carbamate, reference compound] | 193 nM | 193 nM | (197) fold | 1820 nM | 1820 ± 347 nM | 1.03 nM | 1.03 nM | – | 0.98 nM | 0.98 nM | 111 nM | 111 nM | (113) fold | 256 nM | 256 nM | (261) fold | 21.7 nM | 21.7 nM | (22) fold | ring closure, isolated yield ([2]; from C=CCCCCC[C@H](NC(=O)OC(C)(C)C)C(=O)N1C[C@H](Oc2nc3ccccc3nc2-c2cccs2)C[C@H]1C(=O)N[C@]1(C(=O)NS(=O)(=O)C2CC2)C[C@H]1C=C, 3.5 mM, 70.0 °C): 61%; ring closure, isolated yield ([2]; 3.5 mM): 61%
3 | CCc1nc2ccccc2nc1O[C@@H]1C[C@H]2C(=O)N[C@]3(C(=O)NS(=O)(=O)C4CC4)C[C@H]3/C=C\CCCCC[C@H](NC(=O)OC(C)(C)C)C(=O)N2C1 [Compound 18g, tert-Butyl ((2R,6S,13aS,14aR,16aS,Z)-14a-((cyclopropylsulfonyl)carbamoyl)-2-((3-ethylquinoxalin-2-yl)oxy)-5,16-dioxo-1,2,3,5,6,7,8,9,10,11,13a,14,14a,15,16,16a-hexadecahydrocyclopropa[e]pyrrolo[1,2-a][1,4]diazacyclopentadecin-6-yl)carbamate] | 14 nM | 14 nM | (30) fold | 190 nM | 190 ± 13 nM | 7.18 nM | 7.18 nM | (26) fold | 0.46 nM | 0.46 nM | 8.55 nM | 8.55 nM | (19) fold | 10.6 nM | 10.6 nM | (23) fold | 1.81 nM | 1.81 nM | (4) fold | ring closure, isolated yield ([2]; 6.9 mM): 60%
